Where two headings read alike, the source gives them in different places.
Assays:
TP receptor (TBAX2R) = biological target: T1, TP receptor (TBAX2R) (Homo sapiens, UniProt P21731); experiment: PathHunter beta-arrestin cell-based prostanoid receptor assay, TP
T1 construct: host or cells: PathHunter beta-arrestin cell line
T1 sequence (P21731 1-343): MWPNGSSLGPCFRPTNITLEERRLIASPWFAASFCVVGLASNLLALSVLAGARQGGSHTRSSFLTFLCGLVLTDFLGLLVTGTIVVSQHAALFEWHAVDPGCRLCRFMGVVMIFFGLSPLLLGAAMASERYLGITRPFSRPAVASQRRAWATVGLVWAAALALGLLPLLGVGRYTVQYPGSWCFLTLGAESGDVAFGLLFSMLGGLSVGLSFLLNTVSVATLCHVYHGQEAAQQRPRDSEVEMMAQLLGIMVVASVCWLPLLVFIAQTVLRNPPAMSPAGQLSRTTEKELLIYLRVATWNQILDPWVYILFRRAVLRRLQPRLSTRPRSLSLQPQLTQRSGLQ
Protocol: (§1) DiscoverX cell-based ligand binding assays were performed in the PathHunter beta-arrestin (EP1, EP2, EP3, EP4, FP, IP, and TP receptors) or cAMP Hunter™ (DP receptor) cell lines.
(§2) Receptor binding studies were performed in either the PathHunter® b-Arrestin (EP1, EP2, EP3, EP4, FP, IP, and TP receptors) or cAMP Hunter™ (DP receptor) cell lines. A 10 mM working stock of GP1681 was created in 1×PBS, pH 7.4. All assays were carried out in duplicate with 10 individual concentrations of GP1681. A three-fold dilution series of GP1681 was established for the initial or pilot experiment with a starting concentration of 4 uM (starting concentration was chosen based on previous Gemmus Pharma preclinical experimental results).
GP1681 was incubated with cells lines at either 37° C. or room temperature, for 90-180 minutes (temperatures and incubation times are all dependent on established optimized procedures for each receptor cell line) after which cell wells were processed and signal production detected. […] Vehicle only controls (PBS, pH 7.4) were also included for each receptor cell line. Receptor binding activity was analyzed using CBIS data analysis suite (ChemInnovation, CA). The percentage of activity was calculated using the following formula: % Activity=100%×(mean RLU of test sample−mean RLU of vehicle control)/(mean MAX control ligand−mean RLU of vehicle control). Dose curves were performed and EC50 values determined.

EP3 receptor (PTGER3) = biological target: T2, EP3 receptor (PTGER3) (Homo sapiens, UniProt P43115); experiment: PathHunter beta-arrestin cell-based prostanoid receptor assay, EP3; settings: β-Arrestin
T2 construct: host or cells: PathHunter beta-arrestin cell line
T2 sequence (P43115 1-390): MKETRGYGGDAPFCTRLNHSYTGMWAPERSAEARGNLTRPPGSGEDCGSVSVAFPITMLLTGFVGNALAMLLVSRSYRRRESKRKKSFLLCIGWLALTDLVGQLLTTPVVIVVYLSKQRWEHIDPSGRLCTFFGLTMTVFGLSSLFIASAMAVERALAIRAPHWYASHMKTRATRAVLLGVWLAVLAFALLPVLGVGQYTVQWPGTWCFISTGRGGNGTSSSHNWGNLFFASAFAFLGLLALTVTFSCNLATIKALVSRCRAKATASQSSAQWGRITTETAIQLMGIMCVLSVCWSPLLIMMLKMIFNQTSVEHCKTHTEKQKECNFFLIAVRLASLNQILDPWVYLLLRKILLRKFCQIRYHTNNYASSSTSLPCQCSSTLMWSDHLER
Protocol: as §1, §2
GP1681 was incubated with cells lines at either 37° C. or room temperature, for 90-180 minutes (temperatures and incubation times are all dependent on established optimized procedures for each receptor cell line) after which cell wells were processed and signal production detected. […] Receptor binding activity was analyzed using CBIS data analysis suite (ChemInnovation, CA). The percentage of activity was calculated using the following formula: % Activity=100%×(mean RLU of test sample−mean RLU of vehicle control)/(mean MAX control ligand−mean RLU of vehicle control). Dose curves were performed and EC50 values determined. […]

EP2 receptor (PTGER2) = biological target: T3, EP2 receptor (PTGER2) (Homo sapiens, UniProt P43116); experiment: PathHunter beta-arrestin cell-based prostanoid receptor assay, EP2
T3 construct: host or cells: PathHunter beta-arrestin cell line
Protocol: as §1, §2
GP1681 was incubated with cells lines at either 37° C. or room temperature, for 90-180 minutes (temperatures and incubation times are all dependent on established optimized procedures for each receptor cell line) after which cell wells were processed and signal production detected. […] Receptor binding activity was analyzed using CBIS data analysis suite (ChemInnovation, CA). The percentage of activity was calculated using the following formula: % Activity=100%×(mean RLU of test sample−mean RLU of vehicle control)/(mean MAX control ligand−mean RLU of vehicle control). Dose curves were performed and EC50 values determined.

EP4 receptor (PTGER4) = biological target: T4, EP4 receptor (PTGER4) (Homo sapiens, UniProt P35408); experiment: PathHunter β-Arrestin PTGER4 (EP4) agonist assay, optimisation of cell density and temperature; format: cell-based; settings: for EC50: read-out: RC50 (μM) / EC50, agonist
T4 construct: expressed in transfected cells; host or cells: PathHunter β-Arrestin PTGER4 (EP4) cell line
Protocol: This Example describes antagonist assay experiments performed with known EP4 receptor inhibitors. Agonist controls and antagonist binding studies were performed in the PathHunter® β-Arrestin PTGER4 (EP4) cell lines. The PathHunter® β-Arrestin assay monitors activation by bound ligands of a GPCR in a homogenous, non-imaging assay format using Enzyme Fragment Complementation (EFC) with β-galactosidase (β-Gal) as the functional reporter. A fresh 10 mM working stock of GP1681 was created in the vehicle (1×PBS, pH 7.4). Prior to setting up the GP1681-antagonist assays, the parameters of the GP1681 agonist assay were optimized for most efficient cellular activation and expression of the reporter molecule via GP1681 receptor (PTGER4) binding. Two different cell densities (5K vs 7.5K) and incubation temperatures (room temperature and 37 C) were evaluated in standard agonist format. […] Vehicle only controls (1×PBS, pH 7.4) were also included for each receptor cell line. Receptor binding activity was analyzed using CBIS data analysis suite (ChemInnovation Software, Inc., San Diego, CA, USA).
The percentage of activity was calculated using the following formula: % Activity=100%×(mean RLU of test sample−mean RLU of vehicle control)/(mean MAX control ligand−mean RLU of vehicle control). Dose curves were performed and EC50 values determined. In all rows, the assay was Arrestin, the assay target was PTGER4, and the result type was EC50 for all agonists, and IC50 for all antagonists. NI indicates no inhibition, N is number of replicates, K is cell density, and RT is room temperature.

[1] = Run 1, GP1681 starting concentration 4 uM, β-Arrestin

T4 sequence (P35408 whole entry): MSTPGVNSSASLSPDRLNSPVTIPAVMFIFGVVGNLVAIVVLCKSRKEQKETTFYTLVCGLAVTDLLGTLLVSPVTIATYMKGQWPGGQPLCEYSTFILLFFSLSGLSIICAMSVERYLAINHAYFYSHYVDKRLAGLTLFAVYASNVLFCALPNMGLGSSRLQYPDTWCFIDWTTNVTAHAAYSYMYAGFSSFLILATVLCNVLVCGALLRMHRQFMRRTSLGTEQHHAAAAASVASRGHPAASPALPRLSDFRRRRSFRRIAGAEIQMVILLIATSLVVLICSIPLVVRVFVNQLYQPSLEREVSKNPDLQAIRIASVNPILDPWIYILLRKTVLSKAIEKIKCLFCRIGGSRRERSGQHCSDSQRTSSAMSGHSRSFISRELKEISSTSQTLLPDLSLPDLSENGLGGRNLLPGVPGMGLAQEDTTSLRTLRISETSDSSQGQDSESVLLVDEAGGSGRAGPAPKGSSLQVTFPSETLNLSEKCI
T3 sequence (P43116 whole entry): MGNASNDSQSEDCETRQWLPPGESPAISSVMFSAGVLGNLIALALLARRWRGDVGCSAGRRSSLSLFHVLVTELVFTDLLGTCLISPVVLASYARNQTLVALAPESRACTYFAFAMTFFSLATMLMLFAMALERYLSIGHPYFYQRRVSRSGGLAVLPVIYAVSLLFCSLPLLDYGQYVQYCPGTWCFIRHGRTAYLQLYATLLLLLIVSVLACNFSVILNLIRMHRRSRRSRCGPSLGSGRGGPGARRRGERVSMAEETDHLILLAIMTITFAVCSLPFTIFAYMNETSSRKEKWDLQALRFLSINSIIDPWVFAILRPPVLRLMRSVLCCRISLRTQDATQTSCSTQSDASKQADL

Compound: CC#CCC(C)C(O)C=CC1C(O)CC2Oc3c(CCCC(=O)O)cccc3C21 (single isomer, unassigned) [GP1681, esuberaprost]
- binding to TP receptor, in words (TP receptor (TBAX2R)): does not bind
- EC50 (TP receptor (TBAX2R); [1]): > 4 µM
- EC50 (EP3 receptor (PTGER3); Run 1, GP1681 starting concentration 4 uM, curve for GP1681 not fully sigmoidal): 1.83 µM
- EC50 (EP3 receptor (PTGER3); Run 2, GP1681 starting concentration 500 μM): 5.39 µM
- binding to EP2 receptor, in words (EP2 receptor (PTGER2)): does not bind
- EC50 (EP2 receptor (PTGER2); [1]): > 4 µM
- EC50 (EP4 receptor (PTGER4); 5K 37C, N not given): 11.9 µM
- EC50 (EP4 receptor (PTGER4); N = 1, 5K 37C): 23.4 µM
- EC50 (EP4 receptor (PTGER4); N = 1, 5K RT): 12.7 µM
- EC50 (EP4 receptor (PTGER4); N = 1, 7.5K 37C): 22 µM
- EC50 (EP4 receptor (PTGER4); N = 1, 7.5K RT): 14.8 µM
- EC50 (EP4 receptor (PTGER4); N = 2, 5K 37C): 16.2 µM
- EC50 (EP4 receptor (PTGER4); N = 2, 5K RT): 16.1 µM
- EC50 (EP4 receptor (PTGER4); N = 2, 7.5K 37C): 18 µM
- EC50 (EP4 receptor (PTGER4); N = 2, 7.5K RT): 11.1 µM
- EC80 concentration (EP4 receptor (PTGER4); from GP1681 binding curves, used in the antagonist assays): 45 µM

Reference: patent US12042503B2, “Compositions and methods for treating coronavirus infections” (priority 2020, dated 2024)
